# Measurements taken from patent EP4640678A1, “NOVEL OXO-PYRIDINE COMPOUND, PREPARATION METHOD THEREFOR, AND USE THEREOF” (Chengdu Shibeikang Biomedical Technology Co., Ltd., priority 2022, dated 2024).
# Test system: human plasma
# Experiment: determination of in-vitro anticoagulant effect in human plasma (APTT)
# Format: biochemical
# Conditions: healthy human plasma, 37°C for 3 min
# Procedure: After centrifugation, the plasma sample was pipetted and frozen (-80°C) for later use.
# A proper amount of a compound was weighed and prepared into a 10-100 mM stock solution using 100% of DMSO (the specific concentration of the stock solution was determined based on the properties of the compound); and then working solutions with various concentrations (specifically: 1 µM, 3 µM and 10 µM, respectively) were prepared from the stock solution using the healthy human plasma as a solution and thoroughly mixed. After incubation at 37°C for 3 min, the sample was placed on an instrument (model: CS-2000I) to determine APTT.
# GraphPad Prism software was used for analysis to calculate the APTT prolongation rate at each concentration.
Compound,APTT prolongation rate (%) (1 µM),APTT prolongation rate (%) (3 µM),APTT prolongation rate (%) (10 µM)
"CC[C@@H](C(=O)Nc1ccc(C(=O)NC)c(Cl)c1)n1cc(OC)c(-c2cc(Cl)ccc2-n2cc(C(F)(F)F)nn2)cc1=O [Compound 3, (S)-2-chloro-4-(2-(4-(5-chloro-2-(4-(trifluoromethyl)-1H-1,2,3-triazol-1-yl)phenyl)-5-methoxy-2-oxopyridin-1(2H)-yl)butanamido)-N-methylbenzamide]",48.2,66.5,92.0
"CC[C@@H](C(=O)Nc1ccc(C(=O)OC)c(Cl)c1)n1cc(OC)c(-c2cc(Cl)ccc2-n2cc(C(F)(F)F)nn2)cc1=O [Compound 4, Methyl (S)-2-chloro-4-(2-(4-(5-chloro-2-(4-(trifluoromethyl)-1H-1,2,3-triazol-1-yl)phenyl)-5-methoxy-2-oxopyridin-1(2H)-yl)butanamido)benzoate]",31.5,54.3,102.6
"CC[C@@H](C(=O)Nc1ccc(C(N)=O)c(C(F)(F)F)c1)n1cc(OC)c(-c2cc(Cl)ccc2-n2cc(C(F)(F)F)nn2)cc1=O [Compound 7, (S)-4-(2-(4-(5-chloro-2-(4-(trifluoromethyl)-1H-1,2,3-triazol-1-yl)phenyl)-5-methoxy-2-oxopyridin-1(2H)-yl)butanamido)-2-(trifluoromethyl)benzamide]",37.9,52.4,73.4
"CC[C@@H](C(=O)Nc1ccc(C(N)=O)c(C(N)=O)c1)n1cc(OC)c(-c2cc(Cl)ccc2-n2cc(C(F)(F)F)nn2)cc1=O [Compound 8, (S)-4-(2-(4-(5-chloro-2-(4-(trifluoromethyl)-1H-1,2,3-triazol-1-yl)phenyl)-5-methoxy-2-oxopyridin-1(2H)-yl)butanamido)phthalamide]",34.7,64.5,93.8
"CC[C@@H](C(=O)Nc1ccc(C(N)=O)c(Cl)c1)n1cc(OC)c(-c2cc(Cl)ccc2-n2cc(Cl)nn2)cc1=O [Compound 10, (S)-2-chloro-4-(2-(4-(5-chloro-2-(4-chloro-1H-1,2,3-triazol-1-yl)phenyl)-5-methoxy-2-oxopyridin-1(2H)-yl)butanamido)benzamide]",38.6,56.0,98.9
"CC[C@@H](C(=O)Nc1ccc(C(N)=O)c(C(F)(F)F)c1)n1cc(OC)c(-c2cc(Cl)ccc2-n2cc(Cl)nn2)cc1=O [Compound 11, (S)-4-(2-(4-(5-chloro-2-(4-chloro-1H-1,2,3-triazol-1-yl)phenyl)-5-methoxy-2-oxopyridin-1(2H)-yl)butanamido)-2-(trifluoromethyl)benzamide]",18.7,26.9,42.0
"CC[C@@H](C(=O)Nc1ccc(C(N)=O)c(F)c1F)n1cc(OC)c(-c2cc(Cl)ccc2-n2cc(C(F)(F)F)nn2)cc1=O [Compound 12, (S)-4-(2-(4-(5-chloro-2-(4-(trifluoromethyl)-1H-1,2,3-triazol-1-yl)phenyl)-5-methoxy-2-oxopyridin-1(2H)-yl)butanamido)-2,3-difluorobenzamide]",23.2,33.5,81.1
"CC[C@@H](C(=O)Nc1c(Cl)cc(C(N)=O)cc1Cl)n1cc(OC)c(-c2cc(Cl)ccc2-n2cc(C(F)(F)F)nn2)cc1=O [Compound 15, (S)-3,5-dichloro-4-(2-(4-(5-chloro-2-(4-(trifluoromethyl)-1H-1,2,3-triazol-1-yl)phenyl)-5-methoxy-2-oxopyridin-1(2H)-yl)butanamido)benzamide]",24.2,30.0,51.1
